A value given as a limit tells only on which side of the number the result lay.

Consider 18 compounds from patent publication US20250206757A1 (GASHERBRUM BIO, INC., priority 2022, published 2025).

For this assay, the target named is GLP-1 Receptor (Homo sapiens, UniProt P43220). The experiment in a line: GLP-1R agonist cAMP stimulation assay (HEK293/GLP1R/CRE-LUC cells, HTRF cAMP dynamic 2 kit). The class given is cell-based. The settings on record: HEK293/CRE-Luc cell line stably expressing the GLP-1 Receptor; 30 min incubation at 37° C. As for the experimental part: Activation of GLP-1 receptor is known to stimulate cyclic AMP (cAMP) production in cells which indicates primary coupling to the Gas subunit of the G protein heterotrimeric complex.
Sequence of GLP-1 Receptor (P43220 24-463): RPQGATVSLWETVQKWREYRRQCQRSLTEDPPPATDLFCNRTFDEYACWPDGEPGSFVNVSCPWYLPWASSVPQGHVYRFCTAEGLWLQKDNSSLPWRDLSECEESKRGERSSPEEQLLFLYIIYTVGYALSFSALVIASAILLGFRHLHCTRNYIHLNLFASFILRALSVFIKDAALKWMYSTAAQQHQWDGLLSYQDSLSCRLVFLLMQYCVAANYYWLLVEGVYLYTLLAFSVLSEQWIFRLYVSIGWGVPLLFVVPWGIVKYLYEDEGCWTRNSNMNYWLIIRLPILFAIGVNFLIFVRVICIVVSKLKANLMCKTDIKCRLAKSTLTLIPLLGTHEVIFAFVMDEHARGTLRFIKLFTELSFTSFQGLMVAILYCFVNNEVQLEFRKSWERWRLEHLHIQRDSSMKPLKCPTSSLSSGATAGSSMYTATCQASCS
To optimize functional activity directed toward Gas coupling, a HEK293/CRE-Luc cell line developed by HDB stably expressing the GLP-1 Receptor was used. 200× concentration of compound working solutions were prepared (Agilent Technologies Bravo) with 1/2 log serial dilution in 384-well Echo LDV plate (Labcyte, Cat #LP-0200). 50 nL/well 200× concentration of compound working solutions were moved to 384-well white low volume plate (Greiner, Cat #784075) using Labcyte ECHO550. 1×10^5 cells/mL HEK293/GLP1R/CRE-LUC (HD Biosciences) cell suspensions prepared with assay buffer [DPBS containing 0.5 mM IBMX (Sigma, Cat #15879) and 0.10% BSA (GENVIEW, Cat #FA016-100g)], 10 μL cell suspensions were added to each well of previous generated assay plate which already contains 50 nL compound at 200× concentration using ThermoFisher Multidrop Combi (1000 cells/well). Seal the plate and incubate at 37° C. with 5% CO2 for 30 min.
After incubation the cAMP assay signal was generated using cAMP dynamic 2 Kit (Cisbio). 5 μL cAMP-d2 working solution was added to each well, followed with 5 μL Anti-cAMP antibody-cryptate working solution added to each well using ThermoFisher Multidrop Combi. Incubate at room temperature for 1 hour protected from light. Read the fluorescence at 665 and 615 nm with Reader PerkinElmer EnVision.
In general terms: TR-FRET usually uses a lanthanide donor and a delayed reading to cut background.
`Fc1cc(Cl)cc(F)c1CNc1nc2c(cc1C(F)(F)F)CCN(Cc1nc3cc(-c4nnc(C5CC5)[nH]4)ncc3n1C[C@@H]1CCO1)C2` [Compound 110, N-[(4-chloro-2,6-difluorophenyl)methyl]-7-{[6-(5-cyclopropyl-4H-1,2,4-triazol-3-yl)-3-{[(2S)-oxetan-2-yl]methyl}-3H-imidazo[4,5-c]pyridin-2-yl]methyl}-3-(trifluoromethyl)-5,6,7,8-tetrahydro-1,7-naphthyridin-2-amine] displayed a concentration giving a half-maximal response (EC50) of under 1 nM. With `O=c1[nH]c(-c2ccc3c(c2)nc(CN2CCc4cc(C(F)(F)F)c(OCc5ccc(Cl)cc5F)nc4C2)n3C[C@@H]2CCO2)no1` [Compound 36, 3-[2-({2-[(4-chloro-2-fluorophenyl)methoxy]-3-(trifluoromethyl)-5,6,7,8-tetrahydro-1,7-naphthyridin-7-yl}methyl)-1-{1[(2S)-oxetan-2-yl]methyl}-1H-1,3-benzodiazol-5-yl]-4,5-dihydro-1,2,4-oxadiazol-5-one] the figure was under 1 nM. With `O=C(O)c1ccc2c(nc(CN3CCc4cc(C(F)(F)F)c(OCc5ccc(Cl)cc5F)nc4C3)n2C[C@@H]2CCO2)c1F` [Compound 27, 2-({2-[(4-chloro-2-fluorophenyl)methoxy]-3-(trifluoromethyl)-5,6,7,8-tetrahydro-1,7-naphthyridin-7-yl}methyl)-4-fluoro-1-{[(2S)-oxetan-2-yl]methyl}-1H-1,3-benzodiazole-5-carboxylic acid] the figure was 1 to 300 nM; with `O=c1cc(-c2cc3nc(CN4CCc5cc(C(F)(F)F)c(OCc6ccc(Cl)cc6F)nc5C4)n(C[C@@H]4CCO4)c3cn2)cc[nH]1` [Compound 100, 4-[2-({2-[(4-chloro-2-fluorophenyl)methoxy]-3-(trifluoromethyl)-5,6,7,8-tetrahydro-1,7-naphthyridin-7-yl}methyl)-3-{1[(2S)-oxetan-2-yl]methyl}-3H-imidazo[4,5-c]pyridin-6-yl]-1,2-dihydropyridin-2-one], over 300 nM; with `Fc1cc(Cl)ccc1COc1nc2c(cc1Cl)CCN(Cc1nc3cc(-c4nnc(C(F)(F)F)[nH]4)ncc3n1C[C@@H]1CCO1)C2` [Compound 5, 3-chloro-2-[(4-chloro-2-fluorophenyl)methoxy]-7-[(3-{1[(2S)-oxetan-2-yl]methyl}-6-[5-(trifluoromethyl)-4H-1,2,4-triazol-3-yl]-3H-imidazo[4,5-c]pyridin-2-yl)methyl]-5,6,7,8-tetrahydro-1,7-naphthyridine], under 1 nM. With `CNC(=O)c1cc2nc(CN3CCc4cc(C(F)(F)F)c(OCc5ccc(Cl)cc5F)nc4C3)n(C[C@@H]3CCO3)c2cn1` [Compound 24, 2-({2-[(4-chloro-2-fluorophenyl)methoxy]-3-(trifluoromethyl)-5,6,7,8-tetrahydro-1,7-naphthyridin-7-yl}methyl)-N-methyl-3-{[(2S)-oxetan-2-yl]methyl}-3H-imidazo[4,5-c]pyridine-6-carboxamide] the figure was 1 to 300 nM; with `O=c1[nH]c(-c2cnc3c(c2)nc(CN2CCc4cc(C(F)(F)F)c(OCc5c(F)cc(Cl)cc5F)nc4C2)n3C[C@@H]2CCO2)no1` [Compound 30, 3-[2-({2-[(4-chloro-2,6-difluorophenyl)methoxy]-3-(trifluoromethyl)-5,6,7,8-tetrahydro-1,7-naphthyridin-7-yl}methyl)-3-{[(2S)-oxetan-2-yl]methyl}-3H-imidazo[4,5-b]pyridin-6-yl]-4,5-dihydro-1,2,4-oxadiazol-5-one], under 1 nM.

Compound `O=c1ccc(-c2cc3nc(CN4CCc5cc(C(F)(F)F)c(OCc6ccc(Cl)cc6F)nc5C4)n(C[C@@H]4CCO4)c3cn2)c[nH]1` [Compound 102, 5-[2-({2-[(4-chloro-2-fluorophenyl)methoxy]-3-(trifluoromethyl)-5,6,7,8-tetrahydro-1,7-naphthyridin-7-yl}methyl)-3-{[(2S)-oxetan-2-yl]methyl}-3H-imidazo[4,5-c]pyridin-6-yl]-1,2-dihydropyridin-2-one] returned an EC50 of over 300 nM. Under `Cc1nnc(-c2cc3nc(CN4CCc5cc(C(F)(F)F)c(OCc6ccc(Cl)cc6F)nc5C4)n(C[C@@H]4CCO4)c3cn2)[nH]1` [Compound 62, 2-[(4-chloro-2-fluorophenyl)methoxy]-7-{[6-(5-methyl-4H-1,2,4-triazol-3-yl)-3-{[(2S)-oxetan-2-yl]methyl}-3H-imidazo[4,5-c]pyridin-2-yl]methyl}-3-(trifluoromethyl)-5,6,7,8-tetrahydro-1,7-naphthyridine] stands under 1 nM; under `Fc1cc(Cl)ccc1COc1nc2c(cc1C1CC1)CCN(Cc1nc3cc(-c4nnc(C(F)(F)F)[nH]4)cnc3n1C[C@@H]1CCO1)C2` [Compound 3, 2-[(4-chloro-2-fluorophenyl)methoxy]-3-cyclopropyl-7-[(3-{[(2S)-oxetan-2-yl]methyl}-6-[5-(trifluoromethyl)-4H-1,2,4-triazol-3-yl]-3H-imidazo[4,5-b]pyridin-2-yl)methyl]-5,6,7,8-tetrahydro-1,7-naphthyridine], 1 to 300 nM.

Consider `N#Cc1nnc(-c2cnc3c(c2)nc(CN2CCc4cc(C(F)(F)F)c(OCc5ccc(Cl)cc5F)nc4C2)n3C[C@@H]2CCO2)[nH]1` [Compound 17, 5-[2-({2-[(4-chloro-2-fluorophenyl)methoxy]-3-(trifluoromethyl)-5,6,7,8-tetrahydro-1,7-naphthyridin-7-yl}methyl)-3-{1[(2S)-oxetan-2-yl]methyl}-3H-imidazo[4,5-b]pyridin-6-yl]-4H-1,2,4-triazole-3-carbonitrile], for which the half-maximal effective concentration (EC50) is under 1 nM. Under `Fc1cc(Cl)ccc1COc1nc2c(cc1C(F)(F)F)CCN(Cc1nc3sc(-c4nnc(C(F)(F)F)[nH]4)cc3n1C[C@@H]1CCO1)C2` [Compound 59, 2-[(4-chloro-2-fluorophenyl)methoxy]-7-[(1-{[(2S)-oxetan-2-yl]methyl}-5-[5-(trifluoromethyl)-4H-1,2,4-triazol-3-yl]-1H-thieno[2,3-d]imidazol-2-yl)methyl]-3-(trifluoromethyl)-5,6,7,8-tetrahydro-1,7-naphthyridine] stands under 1 nM; under `Cc1ccc(COc2nc3c(cc2C(F)(F)F)CCN(Cc2nc4cc(-c5noc(=O)[nH]5)ncc4n2C[C@@H]2CCO2)C3)c(Cl)c1` [Compound 33, 3-[2-({2-[(2-chloro-4-methylphenyl)methoxy]-3-(trifluoromethyl)-5,6,7,8-tetrahydro-1,7-naphthyridin-7-yl}methyl)-3-{1[(2S)-oxetan-2-yl]methyl}-3H-imidazo[4,5-c]pyridin-6-yl]-4,5-dihydro-1,2,4-oxadiazol-5-one], under 1 nM; under `N#CC1(Cc2cc(-c3nnc(C(F)(F)F)[nH]3)cnc2CN2CCc3cc(Cl)c(OCc4ccc(Cl)cc4F)nc3C2)CC1` [Compound 11, 1-{[2-({3-chloro-2-[(4-chloro-2-fluorophenyl)methoxy]-5,6,7,8-tetrahydro-1,7-naphthyridin-7-yl}methyl)-5-[5-(trifluoromethyl)-4H-1,2,4-triazol-3-yl]pyridin-3-yl]methyl}cyclopropane-1-carbonitrile], over 300 nM. With `NC(=O)c1nnc(-c2cc3nc(CN4CCc5cc(C(F)(F)F)c(OCc6ccc(Cl)cc6F)nc5C4)n(C[C@@H]4CCO4)c3cn2)[nH]1` [Compound 43, 5-[2-({2-[(4-chloro-2-fluorophenyl)methoxy]-3-(trifluoromethyl)-5,6,7,8-tetrahydro-1,7-naphthyridin-7-yl}methyl)-3-{[(2S)-oxetan-2-yl]methyl}-3H-imidazo[4,5-c]pyridin-6-yl]-4H-1,2,4-triazole-3-carboxamide] the figure was under 1 nM; with `O=c1[nH]c(-c2cc3nc(CN4CCc5cc(C(F)(F)F)c(OCc6ccc(Cl)cc6)nc5C4)n(C[C@@H]4CCO4)c3cn2)no1` [Compound 31, 3-[2-({2-[(4-chlorophenyl)methoxy]-3-(trifluoromethyl)-5,6,7,8-tetrahydro-1,7-naphthyridin-7-yl}methyl)-3-{[(2S)-oxetan-2-yl]methyl}-3H-imidazo[4,5-c]pyridin-6-yl]-4,5-dihydro-1,2,4-oxadiazol-5-one], under 1 nM. `Cc1cc2c(nc1OCc1ccc(Cl)cc1F)CN(Cc1nc3cc(-c4nnc(C(F)F)[nH]4)cnc3n1C[C@@H]1CCO1)CC2` [Compound 52, 2-[(4-chloro-2-fluorophenyl)methoxy]-7-({6-[5-(difluoromethyl)-4H-1,2,4-triazol-3-yl]-3-{[(2S)-oxetan-2-yl]methyl}-3H-imidazo[4,5-b]pyridin-2-yl}methyl)-3-methyl-5,6,7,8-tetrahydro-1,7-naphthyridine] showed a concentration for a half-maximal effect (EC50) of under 1 nM. `Cc1cc2c(nc1OCc1c(F)cc(Cl)cc1F)CN(Cc1nc3cc(-c4nnc(C(F)(F)F)[nH]4)ncc3n1C[C@@H]1CCO1)CC2` [Compound 55, 2-[(4-chloro-2,6-difluorophenyl)methoxy]-3-methyl-7-[(3-{1[(2S)-oxetan-2-yl]methyl}-6-[5-(trifluoromethyl)-4H-1,2,4-triazol-3-yl]-3H-imidazo[4,5-c]pyridin-2-yl)methyl]-5,6,7,8-tetrahydro-1,7-naphthyridine] came in with an EC50 of under 1 nM.

One may read the EC50 as the concentration that produces a half-maximal response. Higher therefore signals a need for much substance.
